Test results published in ChEMBL document CHEMBL4402555, “Impact of the structure-activity relationship of AHL analogues on quorum sensing in Gram-negative bacteria” (Bioorg Med Chem, 2020).

How the values were obtained:
[1] = molecular target: T1, Transcriptional activator protein LasR (Pseudomonas aeruginosa (strain ATCC 15692 / PAO1 / 1C / PRS 101 / LMG12228)) (UniProt P25084); assay: Antagonist activity at LasR in Pseudomonas aeruginosa PAO-JP2 harboring plasI-LVAgfp assessed as inhibition of GFP expression by measuring reduction in fluorescence intensity at 100 uM incubated for 6 hrs in presence of AI1 by fluorescence based competitive assay relative to control
T1 sequence (whole entry): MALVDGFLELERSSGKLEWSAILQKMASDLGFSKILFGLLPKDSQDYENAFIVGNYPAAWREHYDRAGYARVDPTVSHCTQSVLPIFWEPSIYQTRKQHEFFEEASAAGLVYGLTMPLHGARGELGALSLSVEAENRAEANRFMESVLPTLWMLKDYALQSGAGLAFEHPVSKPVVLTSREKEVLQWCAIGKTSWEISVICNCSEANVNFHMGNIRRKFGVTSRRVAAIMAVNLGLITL

[2] = molecular target: T2, Transcriptional activator protein LuxR (Aliivibrio fischeri, UniProt P12746); assay: Antagonist activity at Aliivibrio fischeri LuxR by luminescence method
T2 sequence (P12746 whole entry): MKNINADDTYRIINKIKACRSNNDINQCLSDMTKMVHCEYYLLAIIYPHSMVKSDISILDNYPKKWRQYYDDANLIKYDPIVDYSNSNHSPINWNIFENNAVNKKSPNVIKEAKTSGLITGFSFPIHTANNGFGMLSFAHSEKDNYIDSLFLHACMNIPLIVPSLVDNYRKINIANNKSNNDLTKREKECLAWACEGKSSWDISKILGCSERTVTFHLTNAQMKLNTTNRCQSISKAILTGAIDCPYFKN

[3] = molecular target: T2, Transcriptional activator protein LuxR; assay: Antagonist activity at Aliivibrio fischeri ES114 LuxR after 4 to 8 hrs by luminescence method
[4] = Inhibition of LasR in Escherichia coli JLD271 harboring pSC11/pJN105L using CPRG as substrate incubated for 4 hrs by Miller assay method
[5] = molecular target: T2, Transcriptional activator protein LuxR; assay: Agonist activity at Aliivibrio fischeri LuxR by luminescence method
[6] = molecular target: T3, Transcriptional activator protein LasR (Pseudomonas aeruginosa (strain ATCC 15692 / PAO1 / 1C / PRS 101 / LMG12228), UniProt P25084); assay: Inhibition of LasR in Pseudomonas aeruginosa PAO-JP2 harboring plasI-LVAgfp incubated for 6 hrs by fluorescence method
T3 sequence (P25084 whole entry): T1 sequence (whole entry)

[7] = Activation of LasR in Escherichia coli JLD271 harboring pSC11/pJN105L using CPRG as substrate incubated for 4 hrs by Miller assay method
[8] = molecular target: T3, Transcriptional activator protein LasR; assay: Activation of LasR in Pseudomonas aeruginosa PAO-JP2 harboring plasI-LVAgfp incubated for 6 hrs by fluorescence method
[9] = molecular target: T1, Transcriptional activator protein LasR (Pseudomonas aeruginosa (strain ATCC 15692 / PAO1 / 1C / PRS 101 / LMG12228)); assay: Antagonist activity at LasR in Pseudomonas aeruginosa PAO1 assessed as inhibition of pyocyanin production at 50 uM incubated for 13 hrs relative to control
[10] = molecular target: T3, Transcriptional activator protein LasR; assay: Antagonist activity at Pseudomonas aeruginosa LasR transfected with lasB-GFP by […] method
[11] = Inhibition of quorum sensing system in Pseudomonas aeruginosa
Pseudomonas aeruginosa [12] = assay: Inhibition of LasI/LasR in Pseudomonas aeruginosa ATCC 15422 assessed as reduction in protein-mediated transition from microcolonies to mature biofilm at 400 uM incubated for 22 hrs by crystal violet staining assay relative to control
[13] = system: Chromobacterium violaceum; assay: Inhibition of CviI/CviR in Chromobacterium violaceum ATCC 31532 assessed as reduction in violacein production at 40 uM incubated for 24 hrs relative to control
[14] = system: Pseudomonas aeruginosa PAO1; assay: Inhibition of LasI/LasR in Pseudomonas aeruginosa PAO1 assessed as reduction in protein-mediated transition from microcolonies to mature biofilm at 400 uM incubated for 22 hrs by crystal violet staining assay relative to control
[15] = system: Pseudomonas aeruginosa PAO1; assay: Inhibition of LasI/LasR in Pseudomonas aeruginosa PAO1 assessed as reduction in swarming motility at 400 uM incubated for 18 hrs relative to control
[16] = molecular target: T4, Regulatory protein SdiA (Escherichia coli (strain K12)) (UniProt P07026); assay: Inhibition of sdiA in Escherichia coli K-12 assessed as reduction in protein-mediated transition from microcolonies to mature biofilm at 400 uM incubated for 22 hrs by crystal violet staining assay relative to control
T4 sequence (whole entry): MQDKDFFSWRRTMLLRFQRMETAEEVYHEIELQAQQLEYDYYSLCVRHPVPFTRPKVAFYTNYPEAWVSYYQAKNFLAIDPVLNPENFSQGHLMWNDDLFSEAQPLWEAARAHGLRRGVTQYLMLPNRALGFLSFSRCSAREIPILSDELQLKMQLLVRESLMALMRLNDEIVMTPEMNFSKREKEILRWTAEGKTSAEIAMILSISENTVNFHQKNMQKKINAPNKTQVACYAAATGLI

[17] = Inhibition of CviI/CviR in Chromobacterium violaceum ATCC 31532 assessed as reduction in violacein production incubated for 24 hrs
Pseudomonas aeruginosa [18] = assay: Inhibition of LasI/LasR in Pseudomonas aeruginosa ATCC 9027 assessed as reduction in protein-mediated transition from microcolonies to mature biofilm at 400 uM incubated for 22 hrs by crystal violet staining assay relative to control
RAW264.7 = assay: Cytotoxicty against mouse RAW264.7 cells at 100 uM after 24 hrs by CellTiter Glo assay relative to control; type: cell-based; settings: raw264.7, 24 h
HL = assay: Cytotoxicty against human HL cells at 100 uM after 24 hrs by CellTiter Glo assay relative to control; type: cell-based
[19] = molecular target: T3, Transcriptional activator protein LasR; assay: Antagonist activity at LasR in Pseudomonas aeruginosa harboring plasI-LVAgfp assessed as inhibition of GFP production incubated for 6 hrs by fluorescence method
[20] = Antagonist activity at LasR in Escherichia coli JLD271 harboring pSC11/ pJN105L using CPRG as substrate incubated for 4 hrs by Miller assay
[21] = Inhibition of quorum sensing system in Pseudomonas aeruginosa transfected with lasB-lacZ in presence of PA1
[22] = molecular target: T2, Transcriptional activator protein LuxR; assay: Inhibition of Aliivibrio fischeri LuxR by luminescence method

Compound: CCCCCCCCCC(=O)CC(=O)CCNC1CCCCC1=O (stereo not given)
- inhibition [1]: 35%

Compound: O=C(CSCc1ccccc1)NC1CCOC1=O (stereo not given)
- IC50 [2]: 2 to 3 µM

Compound: O=C(Cc1ccc(Br)cc1)N[C@H]1CCOC1=O
- IC50 [3]: 3.7 µM
- IC50 [4]: 3.5 µM

Compound: O=C(CC(=O)N[C@H]1CCOC1=O)CC1CCCC1
- EC50 [5]: 0.25 µM

Compound: CCCCCS(=O)(=O)NC1CCOC1=O (stereo not given)
- IC50 [2]: 2 µM

Compound: O=C(CCCc1ccccc1)N[C@H]1CCOC1=O
- IC50 [6]: 175 µM
- IC50 [4]: 1 µM

Compound: O=C(Cc1ccccc1)CS(=O)(=O)NC1CCOC1=O (stereo not given)
- IC50 [2]: 40 µM

Compound: O=C(CC(=O)NC1CCOC1=O)Cc1cccc(Cl)c1 (stereo not given)
- IC50 [2]: 4 µM

Compound: CCC(=O)CC(=O)Nc1cccc(OC)c1
- IC50 [6]: > 200 µM
- IC50 [4]: 4.7 µM
- EC50 [7]: > 100 µM

Compound: CCCCCCCCCC(=O)CC(=O)CCN[C@H]1CCC[C@@H]1O
- inhibition [1]: 70%

Compound: CCCCCCCS(=O)(=O)NC1CCOC1=O (stereo not given)
- IC50 [2]: 9 µM

Compound: O=C(Nc1ccccc1NC(=O)c1cccc(Cl)c1)c1cccc(Cl)c1
- IC50 [4]: 70 µM

Compound: O=C(CC(=O)N[C@H]1CCOC1=O)Cc1ccccc1
- IC50 [4]: 2.8 µM

Compound: O=C(CC(=O)NC1CCOC1=O)Cc1ccc(Br)cc1 (stereo not given)
- IC50 [2]: 2 µM

Compound: N#CSCC(=O)CC(=O)N[C@H]1CCOC1=O
- EC50 [8]: 2.6 µM
- EC50 [7]: 0.017 µM

Compound: CCCCCC(=O)CC(=O)N[C@H]1CCOC1=O
- IC50 [4]: 0.078 µM
- EC50 [7]: 4.5 µM

Compound: O=C(CCCc1ccccc1)NC1CCOC1=O (stereo not given)
- IC50 [2]: 2 to 3 µM

Compound: O=C(CC(=O)NC1CCOC1=O)Cc1ccc(C(F)(F)F)cc1 (stereo not given)
- IC50 [2]: 10 µM

Compound: O=C1OCCC1NS(=O)(=O)CCc1ccccc1 (stereo not given)
- IC50 [2]: 3 µM

Compound: CCC(=O)CC(=O)NC1CCCCC1=O (stereo not given)
- IC50 [6]: > 100 µM
- EC50 [8]: > 200 µM
- EC50 [7]: 0.24 µM

Compound: CCCCCCCCC(=O)CC(=O)Nc1cccc(OC)c1
- inhibition [9]: 74%

Compound: Cc1ccc(SCC(=O)N[C@H]2CCOC2=O)cc1
- IC50 [10]: 50 µM

Compound: CCCC(=O)CS(=O)(=O)NC1CCOC1=O (stereo not given)
- IC50 [2]: 40 µM

Compound: COc1ccc(CC(=O)CC(=O)NC2CCOC2=O)cc1 (stereo not given)
- IC50 [2]: 3 µM

Compound: CCCCCCCCC(=O)CC(=O)Nc1ccccc1
- IC50 [11]: 5.5 µM

Compound: O=C(Cc1ccc(Cl)cc1)N[C@H]1CCOC1=O
- IC50 [3]: 4.1 µM

Compound: O=C(Cc1ccc([N+](=O)[O-])cc1)N[C@H]1CCOC1=O
- IC50 [3]: 1 µM

Compound: CCCCS(=O)(=O)NC1CCOC1=O (stereo not given)
- IC50 [2]: 12 µM

Compound: CCCCCCCCCS(=O)(=O)NC1CCOC1=O (stereo not given)
- IC50 [2]: 40 µM

Compound: O=C(CC(=O)N[C@H]1CCOC1=O)CC1CCCCC1
- EC50 [5]: 1.1 µM

Compound: O=C(NCc1cc(Br)cc(Br)c1OC(=O)c1ccccc1[N+](=O)[O-])c1ccccc1Cl
- EC50 [7]: 0.0078 µM

Compound: O=C(Cc1ccc(-c2ccccc2)cc1)N[C@H]1CCOC1=O
- IC50 [3]: 1.1 µM

Compound: O=C(Cc1ccc(I)cc1)N[C@H]1CCOC1=O
- IC50 [3]: 0.9 µM

Compound: Cc1ccc(CC(=O)CC(=O)NC2CCOC2=O)cc1 (stereo not given)
- IC50 [2]: 4 µM

Compound: CCCCCCCCCC(=O)Oc1c(-c2ccc(OC)cc2)oc2ccccc2c1=O
- inhibition (Pseudomonas aeruginosa [12]): 28.1%
- inhibition [13]: 83.5%
- inhibition [14]: 11.6%
- inhibition [15]: 69.8%
- inhibition [16]: 14.3%
- IC50 [17]: 13.9 µM
- inhibition (Pseudomonas aeruginosa [18]): 22.5%

Compound: CCCCCCCCCSCC(=O)N[C@H]1CCOC1=O
- IC50 [10]: 50 µM

Compound: CCCCCCCCCNC(=O)CC(=O)c1ccccc1
- IC50 [4]: 2.3 µM

Compound: O=C(CCc1ccc(Br)cc1)N[C@H]1CCOC1=O
- IC50 [4]: 0.16 µM
- EC50 [7]: 8.4 µM

Compound: O=C(CC(=O)NC1CCOC1=O)Cc1ccccc1Cl (stereo not given)
- IC50 [2]: 6 µM

Compound: CCC(=O)Oc1c(-c2ccccc2Cl)oc2ccccc2c1=O
- inhibition (Pseudomonas aeruginosa [12]): 11.2%
- Activity (RAW264.7): 97.7%
- inhibition [13]: 99.7%
- inhibition [14]: 42.3%
- inhibition [15]: 72.1%
- inhibition [16]: 51.3%
- IC50 [17]: 9.6 µM
- Activity (HL): 11.2%
- inhibition (Pseudomonas aeruginosa [18]): 27.2%

Compound: CCCCCCC[S+]([O-])CC(=O)NC1CCOC1=O (stereo not given)
- IC50 [10]: 50 µM

Compound: O=C(COCc1ccccc1)NC1CCOC1=O (stereo not given)
- IC50 [2]: 2 to 3 µM

Compound: CCCCCCC(=O)N[C@H]1CCOC1=O
- IC50 [6]: > 100 µM
- IC50 [3]: 1.4 µM
- IC50 [4]: 2.8 µM

Compound: O=C1OCCC1NS(=O)(=O)CCCc1ccccc1 (stereo not given)
- IC50 [2]: 20 µM

Compound: CCCCCCCCCNC(=O)CC(=O)Cc1ccccc1
- IC50 [19]: 15 µM
- IC50 [20]: 2 µM

Compound: CCC(=O)CC(=O)Nc1ccccc1O
- EC50 [8]: 17 µM
- EC50 [7]: 0.096 µM

Compound: CC(C)CC(=O)CC(=O)N[C@H]1CCOC1=O
- EC50 [5]: 0.5 µM

Compound: O=C1OCCC1NS(=O)(=O)Cc1ccccc1 (stereo not given)
- IC50 [2]: 40 µM

Compound: O=C(Cc1ccc(C(F)(F)F)cc1)N[C@H]1CCOC1=O
- IC50 [6]: 3 µM
- EC50 [8]: 140 µM
- IC50 [3]: 0.6 µM
- EC50 [7]: 0.65 µM

Compound: O=C(CC(=O)NC1CCOC1=O)Cc1ccc(F)cc1 (stereo not given)
- IC50 [2]: 4 µM

Compound: CCCCCCCCCC(=O)NC1CCCC1 [N-CYCLOPENTYLDECANAMIDE]
- IC50 [6]: > 50 µM
- IC50 [21]: 80 µM

Compound: O=C(CCCOc1ccc(Cl)cc1)N[C@H]1CCOC1=O
- IC50 [4]: 0.49 µM
- EC50 [7]: 33 µM

Compound: O=C(CC(=O)NC1CCOC1=O)Cc1ccccc1 (stereo not given)
- IC50 [2]: 2 µM

Compound: CCCCCCCSCC(=O)N[C@H]1CCOC1=O
- IC50 [10]: 6 µM

Compound: CCCCCCCCCC(=O)N[C@H]1CCSC1=O
- IC50 [22]: 0.13 µM

Compound: CCC(=O)CC(=O)Nc1ccccc1
- IC50 [6]: 9.7 µM
- EC50 [7]: 0.92 µM

Compound: CCCCCCCCS(=O)(=O)NC1CCOC1=O (stereo not given)
- IC50 [2]: 10 µM

Compound: CCCCCCS(=O)(=O)NC1CCOC1=O (stereo not given)
- IC50 [2]: 6.5 µM

Compound: O=C(CCCC1CCCCC1)NC1CCOC1=O (stereo not given)
- EC50 [5]: > 6 µM

Compound: O=C(COc1cccc(Br)c1)N[C@H]1CCSC1=O
- EC50 [8]: 4.2 µM
- EC50 [7]: 0.013 µM

Compound: O=C(CC(=O)NC1CCOC1=O)Cc1ccc(Cl)cc1 (stereo not given)
- IC50 [2]: 3 µM
